Ends that are not written are not given here.
Assays:
NURR1 mRNA [1] = assay: Northern blot of NURR1 mRNA in primary synoviocytes; assay type: cell-based, human; conditions: for effect on IL-1β-induced NURR1 mRNA: IL-1β 10 ng/ml, indomethacin 2 μM; for NURR1 mRNA levels after stimulation: 20 ng/ml PMA, 10 ng/ml TNFα, IL-1β, IL-6, 1 μM PGE2, CRH
Procedure: (§1) Regulation of gene expression by the protein kinase A and C pathways represent important signaling events in RA synoviocytes (Ben-Av et al., 1995; Crofford et al., 1994; Firestein and Manning, 1999). […] To investigate the involvement of the protein kinase C signaling pathways in NURR regulation, synoviocytes were treated with phorbal myristic acetate (PMA). […] In contrast, dexamethasone had little effect on forskolin- or PMA-induced NUR77 levels.
(§2) In FIG. 4 total RNA was extracted and northern blot analysis was performed. Filters were hybridized with a cDNA for NURR1 or NUR77 and also with GAPDH to control for loading and transfer. Synovial explants were left untreated [C] or incubated with 10^−8M CRH for the indicated times. (FIG. 4A) Confluent monolayers of primary synoviocytes were left untreated [C] or pretreated with 10^−8M dexamethasone (DEX) for 2 h prior to the addition of 25μM forskolin (FOR) or 20 ng/ml of phorbal myristic acetate (PMA). (FIG. 4B)
Therefore the pathological importance of the NURR transcription factors in inflammatory joint disease was further examined by determining the ability of pro-inflammatory agonists to regulate NURR transcript levels in primary synoviocytes and synovium explant tissue (FIG. 6).
(§3) For FIG. 6 each membrane was reprobed with a GAPDH cDNA to control for loading and transfer. NURR1 mRNA levels were measured by northern analysis using total RNA extracted from synoviocytes left untreated [C] or cultured for the time indicated with (A) TNFα (10 ng/ml) in the presence or absence of pre-treatment with 10^−8M dexamethasone (DEX). (B) IL-1β(10 ng/ml) in the presence or absence of pretreatment with 2 μM indomethacin (INDO) or 10^−8M DEX. (C) or synovial explants cultured with IL-6 (10 ng/ml). (D) 1 μM PGE2. (E) 25 μM forskolin (FOR) or […] for 1h in the absence or presence of 5 µg/ml cycloheximide (CHX).
Northern analysis of primary RA synoviocytes were untreated (lane 1) or treated for 1 hour with TNFα (lane 2), IL-1β (lane 3), and PGE2 (lane 4). TNFα and IL-1β were used at a concentration of 10 ng/mL and PGE2 was at a concentration of 10^-6 M.
(§4) Total RNA was isolated from cultured primary synoviocytes or synovial explants. RNA was quantitated by UV absorption and 10 μg of total RNA were electrophoresed on a standard northern gel and transferred to nylon membrane (BioRad, Richmond, Calif.). NURR1 and NUR77 cDNA probes (Murphy and Conneely, 1997), spanning the amino terminal region to avoid cross-hybridization, were radiolabeled to a high specific activity using [α-^32P] dCTP and a random primer labeling system (Promega, Madison, Wis.). Blots were exposed to film at −80° C. using intensifying screens and autoradiographic intensity was quantitated using an imaging densitometer.

NUR77 mRNA [2] = assay: Northern blot of NUR77 mRNA in primary synoviocytes; assay type: cell-based, human; conditions: 25 μM forskolin, 20 ng/ml PMA, CRH
Procedure: as §1
In FIG. 4 total RNA was extracted and northern blot analysis was performed. Filters were hybridized with a cDNA for NURR1 or NUR77 and also with GAPDH to control for loading and transfer. Synovial explants were left untreated [C] or incubated with 10^−8M CRH for the indicated times. […]
Dexamethasone (10^−8M) inhibited the TNFα, IL-1β (FIGS. 6A and B) and PGE2-stimulated NURR1 MRNA in synoviocytes and CRH-induced NURR1 expression in synovium explants. […] For each northern blot shown in FIG. 6, NUR77 mRNA levels were also analyzed. […]
Total RNA was isolated from cultured primary synoviocytes or synovial explants. RNA was quantitated by UV absorption and 10 μg of total RNA were electrophoresed on a standard northern gel and transferred to nylon membrane (BioRad, Richmond, Calif.). […] Blots were exposed to film at −80° C. using intensifying screens and autoradiographic intensity was quantitated using an imaging densitometer.

CRH R1 = conditions: cited from earlier work
NUR77 mRNA [3] = assay: Northern blot of NUR77 mRNA in synovium explants; assay type: cell-based, human; conditions: CRH 10^−8 M
Procedure: (§5) To determine whether the NURR subfamily contribute to CRH signaling in a pathological context, freshly excised RA (FIG. 4A) and PsA synovium explants were incubated with CRH (10^−8 M) and examined for its ability to induce expression of NURR1 and NUR77 transcripts. […] Furthermore, analysis of synovium explants indicates higher endogenous and CRH-inducible NURR1 mRNA compared to NUR77 transcript levels.
as §2, §4

NURR1 mRNA [4] = assay: Northern blot of NURR1 mRNA in synovium explants; assay type: cell-based, human; conditions: CRH 10^−8 M
Procedure: as §5, §2, §3, §4

[5] = dexamethasone 10^−8M, cycloheximide 5 µg/ml

C[C@@H]1C[C@@H]([C@H](O)CC2CC(=O)NC(=O)C2)C(=O)[C@@H](C)C1 [Cycloheximide, cycloheximide]
effect on forskolin-induced NURR1 expression (NURR1 mRNA [1]; 25 μM forskolin, dexamethasone 10^−8M pre-treatment 2 h, cycloheximide 5 µg/ml): robustly enhanced | effect on IL-1β-induced NURR1 mRNA (NURR1 mRNA [1]; dexamethasone 10^−8M): robustly enhanced | effect on TNFα-stimulated NURR1 mRNA (NURR1 mRNA [1]; TNFα 10 ng/ml, dexamethasone 10^−8M): robustly enhanced | basal / endogenous NURR1 expression (NURR1 mRNA [1]; [5]): increased | effect on PGE2-stimulated NURR1 mRNA (NURR1 mRNA [1]; dexamethasone 10^−8M, cycloheximide 5 µg/ml, 1M PGE2 for 1h): robustly enhanced

CCCCCCCCCCCCCC(=O)O[C@@H]1[C@@H](C)[C@@]2(O)[C@@H](C=C(CO)C[C@]3(O)C(=O)C(C)=C[C@@H]23)[C@@H]2C(C)(C)[C@]12OC(C)=O [PMA, phorbal myristic acetate, reference compound]
NUR77 mRNA levels after stimulation (NUR77 mRNA [2]): modestly up-regulated | NURR1 mRNA levels after stimulation (NURR1 mRNA [1]; 25 μM forskolin): no stimulatory effects

CCCCN(CC)c1nc(C)nc2c1c(C)c(C)n2-c1c(C)cc(C)cc1C [antalarmin]
CRH antagonism at sites of inflammation in vivo (CRH R1): clinically effective CRH antagonist at sites of inflammation

C[C@@H]1C[C@H]2[C@@H]3CCC4=CC(=O)C=C[C@]4(C)[C@@]3(F)[C@@H](O)C[C@]2(C)[C@@]1(O)C(=O)CO [dexamethasone]
basal / endogenous NURR1 expression (NURR1 mRNA [1]; [5]): no effect

COc1ccc2c(c1)c(CC(=O)O)c(C)n2C(=O)c1ccc(Cl)cc1 [indomethacin]
effect on IL-1β-induced NURR1 mRNA (NURR1 mRNA [1]; dexamethasone 10^−8M): not blocked

CRH: Corticotropin Releasing Hormone, a major regulator of the hypothalamic pituitary axis (SEEPPISLDLTFHLLREVLEMARAEQLAQQAHSNRKLMEII; ends and bridges not checked; UniProt P06850 154-194, looked up)
NUR77 mRNA levels after stimulation (NUR77 mRNA [2]): not observed | NUR77 mRNA induction in synovium explants (NUR77 mRNA [3]; RA and PsA synovium explants): rapidly induced | time to NUR77 mRNA induction (NUR77 mRNA [3]; synovium explants): ≤ 1 h | time to decline of NUR77 mRNA to basal levels (NUR77 mRNA [3]; synovium explants): ≤ 3 h | NURR1 mRNA induction in synovium explants (NURR1 mRNA [4]; RA and PsA synovium explants, IL-6 10 ng/ml): rapidly induced | time to NURR1 mRNA induction (NURR1 mRNA [4]; synovium explants): ≤ 1 h | time to decline of NURR1 mRNA to basal levels (NURR1 mRNA [4]; synovium explants): ≤ 3 h | NURR1 mRNA levels after stimulation (NURR1 mRNA [1]; 25 μM forskolin): not observed
